Assay results as given in PubChem BioAssay (NCI).
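Each compound was tested at five concentrations against cells in 96-well plates for 48 hours. GI50 = concentration required for 50% inhibition of growth. TGI: concentration producing complete growth inhibition.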

Assays:
Assay in all cases: DTP human tumour cell line panel, 48 h
[1] = test system: LXFL 529 NSCLC
[2] = test system: HCC-2998 colon
[3] = test system: SK-OV-3 ovarian
[4] = test system: OVCAR-8 ovarian
[5] = test system: KM20L2 colon
[6] = test system: MOLT-4 leukemia
[7] = test system: DMS 273 small cell lung
[8] = test system: RPMI-8226 leukemia
[9] = test system: SF-268 CNS
[10] = test system: OVCAR-4 ovarian
[11] = test system: SW-620 colon
[12] = test system: KM12 colon
[13] = test system: NCI-H226 lung
[14] = test system: COLO 205 colon
[15] = test system: SNB-75 CNS
[16] = test system: HT29 colon
[17] = test system: HOP-62 NSCLC
[18] = test system: A498 renal
[19] = test system: K-562 leukemia
[20] = test system: HCT-116 colon
[21] = test system: A549 NSCLC
[22] = test system: SK-MEL-5 melanoma
[23] = test system: OVCAR-3 ovarian
[24] = test system: XF 498 CNS
[25] = test system: LOX IMVI melanoma
[26] = test system: HOP-92 NSCLC
[27] = test system: HL-60(TB) leukemia
[28] = test system: CCRF-CEM leukemia
[29] = test system: M14 melanoma
[30] = test system: EKVX NSCLC
[31] = test system: CAKI-1 renal
[32] = test system: DLD-1 colon
[33] = test system: NCI-H460 lung
[34] = test system: SK-MEL-2 melanoma
[35] = test system: HCT-15 colon
[36] = test system: SN12C renal
[37] = test system: SK-MEL-28 melanoma
[38] = test system: 786-0 renal
[39] = test system: MALME-3M melanoma
[40] = test system: HOP-18 NSCLC
[41] = test system: SF-539 CNS
[42] = test system: NCI-H522 lung
[43] = test system: SF-295 CNS
[44] = test system: U251 CNS
[45] = test system: ACHN renal
[46] = test system: SNB-19 CNS
[47] = test system: DMS 114 small cell lung
[48] = test system: TK-10 renal
[49] = test system: UO-31 renal
[50] = test system: UACC-62 melanoma
[51] = test system: IGROV1 ovarian
[52] = test system: M19-MEL melanoma
[53] = test system: RXF 393 renal
[54] = test system: SNB-78 CNS
[55] = test system: NCI-H23 lung
[56] = test system: SR leukemia
[57] = test system: OVCAR-5 ovarian

## COc1cccc(C=O)c1[O-].COc1cccc(C=O)c1[O-].[Cu+2]
[1]
  TGI: 16.5 µM
[2]
  TGI: 29 µM
[3]
  TGI: 31.8 µM
[4]
  TGI: 44.7 µM
[5]
  TGI: 32.3 µM
[6]
  TGI: 18.6 µM
[7]
  TGI: 36.2 µM
[8]
  TGI: 41.4 µM
[9]
  TGI: 35.3 µM
[10]
  TGI: 6.85 µM
[11]
  TGI: 36.3 µM
[12]
  TGI: 30.7 µM
[13]
  TGI: 68.2 µM
[14]
  TGI: 20.8 µM
[15]
  TGI: 35.4 µM
[16]
  TGI: 46.8 µM
[17]
  TGI: 31.7 µM
[18]
  TGI: 39.4 µM
[19]
  TGI: 17.9 µM
[20]
  TGI: 30.1 µM
[21]
  TGI: 55 µM
[22]
  TGI: 6.27 µM
[23]
  TGI: 21 µM
[24]
  GI50: 6.8 µM
  TGI: 19.2 µM
[25]
  TGI: 37.6 µM
[26]
  TGI: 28 µM
[27]
  GI50: 21.7 µM
  TGI: 46 µM
[28]
  TGI: 28.3 µM
[29]
  TGI: 31.4 µM
[30]
  TGI: 77.7 µM
[31]
  GI50: 2830 nM
  TGI: 10.3 µM
[32]
  TGI: 23.7 µM
[33]
  TGI: 73.8 µM
[34]
  TGI: 12.8 µM
[35]
  TGI: 19.8 µM
[36]
  TGI: 34 µM
[37]
  TGI: 28.5 µM
[38]
  TGI: 31.9 µM
[39]
  TGI: 20.1 µM
[40]
  TGI: 26.8 µM
[41]
  TGI: 41.4 µM
[42]
  TGI: 19.3 µM
[43]
  TGI: > 100 µM
[44]
  TGI: 35.4 µM
[45]
  TGI: 30.5 µM
[46]
  TGI: 31.2 µM
[47]
  TGI: 1200 nM

## Nc1ccc(C(=O)N/C(=C\c2cccc([N+](=O)[O-])c2)c2nc3ccccc3[nH]2)cc1
[1]
  TGI: > 100 µM
[48]
  TGI: > 100 µM
[2]
  TGI: > 100 µM
[3]
  TGI: > 82.7 µM
[4]
  TGI: > 100 µM
[5]
  TGI: > 100 µM
[6]
  TGI: > 100 µM
[7]
  TGI: > 100 µM
[8]
  TGI: > 100 µM
[9]
  TGI: > 100 µM
[10]
  TGI: > 83.3 µM
[11]
  TGI: > 100 µM
[12]
  TGI: > 100 µM
[13]
  TGI: > 100 µM
[14]
  TGI: > 100 µM
[49]
  TGI: 63.8 µM
[15]
  TGI: 69.4 µM
[50]
  TGI: > 100 µM
[16]
  TGI: > 100 µM
[17]
  TGI: 67 µM
[18]
  TGI: > 100 µM
[19]
  TGI: > 100 µM
[51]
  TGI: > 100 µM
[20]
  TGI: > 100 µM
[21]
  TGI: > 100 µM
[22]
  TGI: > 100 µM
[23]
  TGI: > 100 µM
[24]
  TGI: 59.8 µM
[52]
  TGI: > 100 µM
[25]
  TGI: > 100 µM
[26]
  TGI: > 66.4 µM
[27]
  TGI: > 100 µM
[28]
  TGI: > 100 µM
[29]
  TGI: > 100 µM
[53]
  TGI: 59.4 µM
[30]
  TGI: > 100 µM
[31]
  TGI: > 100 µM
[32]
  TGI: > 100 µM
[33]
  TGI: > 100 µM
[34]
  TGI: > 100 µM
[54]
  TGI: > 100 µM
[35]
  TGI: > 100 µM
[36]
  TGI: > 100 µM
[37]
  TGI: > 100 µM
[38]
  TGI: > 100 µM
[39]
  TGI: > 100 µM
[41]
  TGI: > 100 µM
[55]
  TGI: > 100 µM
[42]
  TGI: 98.8 µM
[43]
  TGI: > 100 µM
[56]
  TGI: > 100 µM
[57]
  TGI: > 100 µM
[44]
  TGI: > 100 µM
[45]
  TGI: > 100 µM
[46]
  TGI: > 100 µM
[47]
  TGI: > 100000 nM
